Legend:
[1] = tested on: peroxidase; test: H1 NMR relaxometry / relaxivity enhancement after peroxidase treatment; type: biochemical; conditions: equimolar amount added to the peroxidase reaction
[2] = tested on: digoxigenin-labeled Fab2' fragment of monoclonal antibody; test: MRAMP ELISA-like assay with adsorbed DIG-labeled Fab2' fragment and anti-digoxigenin-peroxidase conjugate; conditions: 0.4 mM substrate, 3.5 mM hydrogen peroxide, 96-well plate
Procedure: Fab2′ fragment of H18/7 monoclonal anti-human E selectin antibody was prepared using pepsin digestion, and then purified. Labeling of Fab2′-fragment with digoxigenin (DIG) hydroxysuccinimide ester (HSE) (Roche Molecular Diagnostics) was carried out according to the vendor's instructions. One ng to 1000 ng of DIG-labeled antibody was serially diluted with 0.01 M sodium carbonate (pH 9) in a 96-well plate (Nunc) and adsorbed at 37° C. overnight. Wells were washed with PBS containing 0.1% Tween 20 (PBST) blocked with BSA solution, and anti-DIG antibody-peroxidase conjugate (Roche, diluted 1:1000) was incubated in wells in PBS-B for 1 hour. Washed wells were filled with 200 μl of 0.4 mM substrate I or II and hydrogen peroxide (3.5 mM) and incubated for 30 min before imaging. Cells (2 million/sample) were treated sequentially with IL-1β, anti-E selectin DIG-labeled Fab2′-fragment, and anti-DIG antibody-peroxidase. Cell suspensions were prepared in PBS and substrates were used as above. Cells were pelleted in Eppendorf tubes (0.5 ml), and then imaged as described above. […] Magnetic resonance signal intensity was quantified as described above and compared to that of aqueous Gd solutions.
In the next series of experiments, we determined whether MRAMP could be utilized to detect a model ligand in an ELISA-like assay. […]

[3] = tested on: peroxidase; test: H1 NMR relaxometry / relaxivity enhancement after peroxidase treatment; type: biochemical; conditions: for r1, peroxidase: after peroxidase; for r1, control: no peroxidase
Procedure: Substrates I and II at concentrations of 10-50 μM were treated by peroxidase (0.1-100 nM) and an excess of hydrogen peroxide (3.5 mM) in 10 mM phosphate-buffered saline (PBS) or 0.05 M sodium phosphate pH 6.8. In some experiments, a peroxide-generating system (5 mM glucose, glucose oxidase and lactoperoxidase) was used. In inhibition studies, 2 mM Gd-free substrate, tyramine, dopamine, or methyldopamine were added as competitive inhibitors. The reaction was monitored by spectrophotometry at 400 nm and by NMR spectrometry (Minispec 120 Bruker). Magnetic resonance imaging was performed using a 1.5 T Signa GE system and surface or knee coils. Inversion-recovery pulse sequences (TE 11 ms/TR 1000 ms/TI 50-600 ms) were used for T1 measurements. […] Magnetic resonance signal intensity was measured using region-of-interest approach and 16-bit TIFF images. Mean pixel values were compared using a Student t-test.

[4] = Chelex-100 resin treatment to test dissociation of gadolinium from the DOTA(Gd) complex; type: physicochemical; conditions: compared to control with no peroxidase added
Text: By plotting relaxation data against the concentration of gadolinium, a raise of 1/T1 and I/T2 of 2 fold (at 0.47 T) and 2.7 fold (1.5 T) in the case of substrate I, and 3.5 (at 0.47 T) in the case of substrate II has been measured (Table 1). […] To find out whether the increase in relaxivity is a result of dissociation of gadolinium cation from a DOTA(Gd) complex, we treated Tyr-DOTA(Gd) or Dopamine-DOTA(Gd) with Chelex-100 resin and compared it to the control with no peroxidase added. No difference in T1 relaxation time of substrate solutions before and after the treatment was observed.

[5] = tested on: peroxidase; test: Kinetics of peroxidase-mediated oxidation in excess hydrogen peroxide, spectrophotometry at 400 nm; type: biochemical; conditions: absorbance at 400 nm
Procedure: Substrates I and II at concentrations of 10-50 μM were treated by peroxidase (0.1-100 nM) and an excess of hydrogen peroxide (3.5 mM) in 10 mM phosphate-buffered saline (PBS) or 0.05 M sodium phosphate pH 6.8. In some experiments, a peroxide-generating system (5 mM glucose, glucose oxidase and lactoperoxidase) was used. In inhibition studies, 2 mM Gd-free substrate, tyramine, dopamine, or methyldopamine were added as competitive inhibitors. The reaction was monitored by spectrophotometry at 400 nm and by NMR spectrometry (Minispec 120 Bruker). Magnetic resonance imaging was performed using a 1.5 T Signa GE system and surface or knee coils. Inversion-recovery pulse sequences (TE 11 ms/TR 1000 ms/TI 50-600 ms) were used for T1 measurements. Spin-echo sequence (TE 13 ms/TR 400 ms/2 NEX, Matrix 256×160) was optimal for magnetic resonance imaging of signal amplification. Magnetic resonance signal intensity was measured using region-of-interest approach and 16-bit TIFF images. […]
Kinetics of oxidation of tyraminyl-DOTA(Gd), I, or hydroxytyraminyl-DOTA(Gd), II, in the presence of the excess of hydrogen peroxide was studied using spectrophotometry. The increase in absorbance at 400 nm in the case of both gadolinium-labeled substrates was rapid, indicating efficient oxidation of both substrates, and gave similar pseudo-first order kinetic constants: k1app=0.0125 s^−1 (I) and 0.013 s^−1 (II).

Compound | influence of added equimolar competitor on gadolinium relaxivity [1] | raise of 1/T1 and 1/T2 after addition of the enzyme ([3]; 0.47 T) [fold] | r1, peroxidase ([3]; 0.47 T (20 MHz)) [mM⁻¹ s⁻¹] | r1, control ([3]; 0.47 T (20 MHz)) [mM⁻¹ s⁻¹] | r1, peroxidase ([3]; 1.5 T (63 MHz)) [mM⁻¹ s⁻¹] | r1, control ([3]; 1.5 T (63 MHz)) [mM⁻¹ s⁻¹] | difference in T1 relaxation time of substrate solutions before and after Chelex-100 treatment [4] | pseudo-first order kinetic constant k1app [5] [s⁻¹] | other results
NCCc1ccc(O)c(O)c1 [dopamine] | did not influence gadolinium relaxivity |  |  |  |  |  |  |  | 
hydroxytyraminyl-DOTA(Gd) [Substrate II] |  | 3.5 | 11.50 | 3.75 | 14.1 | 5.2 | No difference | 0.013 | antibody fragment detected at threshold (sensitivity of MRAMP assay) [2]: 1 ng
N[C@@H](Cc1ccc(O)cc1)C(=O)O [tyrosine] | did not influence gadolinium relaxivity |  |  |  |  |  |  |  | 
methyl-dopamine | did not influence gadolinium relaxivity |  |  |  |  |  |  |  | 
NCCc1ccc(O)cc1 [tyramine] | did not influence gadolinium relaxivity |  |  |  |  |  |  |  | 
tyramine-[1,4,7,10-tetraazacyclododecane-N,N′,N″,N′″-tetraacetic acid, gadolinium salt] [Substrate I] |  | 2 | 7.10 | 3.30 | 10.1 | 4.5 | No difference | 0.0125 | raise of 1/T1 and 1/T2 after addition of the enzyme ([3]; 1.5 T): 2.7 fold

Reference: patent US6737247B2, “Imaging of enzymatic activity” (The General Hospital Corporation, priority 2000, dated 2004)
